# Experimental data published in US20120115848A1, “Inhibitors of Polo-Like Kinase” (ELAN PHARMACEUTICALS, INC., priority 2010, published 2012).
# Experiments:
# [1] = target: T1, PLK3 (Homo sapiens, UniProt Q9H4B4); assay: PLK TR-FRET peptide assay (PLK3); assay type: biochemical; conditions: class symbols
# T1 construct: GST (N)
# Method: (§1) Compounds as described herein (compounds of Formula I, e.g., compounds of the above Examples) are tested for their in vitro kinase activities using various PLK assays. An exemplary assay procedure is described below.
# (§2) (1) Test compound solution preparation: prepare 4× compound solution in PLK assay buffer (50 mM HEPES, 10 mM MgCl2, 1 mM EGTA, 0.01% Tween-20, pH7.4). DTT is added to the buffer just before the experiment to a final concentration of 2 mM. Add 2.5 μl/well to a black 384-well low volume plate (4% DMSO at this step). (2) Kinase preparation: Prepare 2×GST-PLK 1, 2 or 3 (e.g., CarnaBio) solutions in assay buffer (6 nM for PLK1, 6 nM for PLK2 and 0.2 nM for PLK3). Add 5 μl/well, shake the plate, incubate the enzyme with compound at ret. Time for 15 min. (3) ATP/substrate mixture preparation: Prepare 4× (ATP/ULight-Topo Ha peptide substrate; e.g., Perkin Elmer) mixture in assay buffer (0.4 mM ATP/200 nM peptide). Add 2.5 μl/well, shake the plate and incubate at ret. Time. Reactions time: 60 min for PLK1, 60 min for PLK2 and 15 min for PLK3 (4) EDTA preparation: Dilute 0.5M EDTA to 24 mM with detection buffer. Add 5 μl/well to the plate, shake the plate well for 5 min. (5) Prepare 4× Eu-anti-P-Topo Ha (T1342) (e.g., Perkin Elmer) solution (8 nM) in detection buffer (50 Tris-HCl, 150 mM NaCl, 0.5% BSA, PH7.5). Add 5 μl/well to the plate, shake the plate and incubate at ret. Time for 1 h before reading on Envision at 665 nm/615 nm. The fluorescent signal as a function of compound concentration is used to determine the compound IC50.
# [2] = target: T2, PLK1 (Homo sapiens, UniProt P53350); assay: PLK TR-FRET peptide assay (PLK1); assay type: biochemical
# T2 construct: GST (N)
# Method: as §1, §2
# [3] = tested on: HEK-293 cells expressing α-synuclein and PLK2; assay: 293-Syn/PLK2 cell assay (ratio of p-Ser-129 α-synuclein to total synuclein, ELISA); assay type: cell-based; conditions: for IC50: Homo sapiens, HEK293, HEK-293 cells expressing α-synuclein and PLK2, ratio of phosphorylated synuclein to total synuclein; for cell activity: cellular IC50 compared to analogous compounds of WO 2011/079118
# Method: Compounds as described herein (compounds of Formula I, e.g., compounds of the above Examples) are tested for their activity in HEK-293 cells expressing α-synuclein and PLK2. An exemplary assay procedure is described below.
# (1) Plate HEK-293 cells stably transfected with α-synuclein in 10 cm dishes (Corning) at […] in 10% FCS/DMEM. (2) Transfect cells with PLK2 (PLK2-pCMV6 (Origene), at a concentration of 24 μg/dish and 72 μl Fugene6/dish (Roche)). (3) Trypsinize cells the following day and plate at 30,000 cells/well in PDL coated 96 well tissue culture plates (Becton Dickinson). (4) Starting with compounds at a concentration of 10 mM solutions, prepare five 1:3 serial dilutions in DMSO. (5) Dilute test and positive control compound DMSO stocks 1:100 into 10% FCS DMEM. (6) Change the cell media immediately prior to compound treatment, then add compound+DMEM to cells at 1:10 final dilution (final DMSO concentration is 0.1%). (7) After 2 hours, place the cells on ice, remove the media and the rinse cells once with cold phosphate buffered saline (PBS). Remove PBS and lyse the cells using a cell extraction buffer (CEB) (10 mM Tris, pH 7.4, 100 mM NaCl, 1 mM EDTA, 1 mM NaF, 1 mM EGTA, 20 mM Na4P2O7, 2 mM Na3VO4, 0.5% Deoxycholate, 1% TritonX-100, 10% Glycerol, 0.1% SDS) with added protease inhibitors (10 μg/ml leupeptin, 20 μg/ml aprotinin) (8) Freeze plates on dry ice and store at −80°.
# Total and p-Ser-129 α-synuclein levels can be quantified with a sandwich ELISA (e.g., using 1H7 as the capture antibody and biotinylated 5C12 and 11A5 as the total and phospho synuclein reporter antibodies respectively; see e.g., J. Biol. Chem. 2006, 281:29739-29752, the disclosure of which is incorporated herein in its entirety). Alpha-synuclein phosphorylated at serine 129 (p-Ser-129 α-synuclein) levels are normalized to the total synuclein measured in each lysate and the ratio of phosphorylated synuclein to total synuclein as a function of compound concentration can be used to determine IC50 of the compounds.
# [4] = target: T3, PLK2 (Homo sapiens, UniProt Q9NYY3); assay: PLK TR-FRET peptide assay (PLK2); assay type: biochemical; conditions: for selectivity relative to PLK1: compared to analogous compounds of WO 2011/079118; for activity with respect to PLK2: in vitro IC50 compared to analogous compounds of WO 2011/079118 (R1 methyl instead of fused ring)
# T3 construct: GST (N)
# Method: as §1, §2
# [5] = PLK TR-FRET peptide assay, class symbols
# [6] = comparison with analogous compounds of WO 2011/079118
# T2 sequence (P53350 whole entry): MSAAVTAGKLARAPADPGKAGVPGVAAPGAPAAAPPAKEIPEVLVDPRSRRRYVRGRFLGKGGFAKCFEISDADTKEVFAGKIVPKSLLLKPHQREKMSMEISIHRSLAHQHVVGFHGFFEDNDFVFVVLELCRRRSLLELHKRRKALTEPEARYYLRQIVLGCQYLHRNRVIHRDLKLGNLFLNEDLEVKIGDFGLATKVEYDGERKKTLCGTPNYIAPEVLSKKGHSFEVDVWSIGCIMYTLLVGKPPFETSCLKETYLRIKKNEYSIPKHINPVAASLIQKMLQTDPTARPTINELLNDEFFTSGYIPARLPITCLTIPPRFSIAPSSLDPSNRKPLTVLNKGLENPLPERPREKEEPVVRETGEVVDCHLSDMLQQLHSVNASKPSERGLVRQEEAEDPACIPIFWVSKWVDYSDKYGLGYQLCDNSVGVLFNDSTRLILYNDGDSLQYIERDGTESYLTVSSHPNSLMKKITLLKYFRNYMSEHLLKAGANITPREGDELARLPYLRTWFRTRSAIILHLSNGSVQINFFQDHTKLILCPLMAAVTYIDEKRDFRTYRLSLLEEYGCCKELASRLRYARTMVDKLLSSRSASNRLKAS
# T1 sequence (Q9H4B4 whole entry): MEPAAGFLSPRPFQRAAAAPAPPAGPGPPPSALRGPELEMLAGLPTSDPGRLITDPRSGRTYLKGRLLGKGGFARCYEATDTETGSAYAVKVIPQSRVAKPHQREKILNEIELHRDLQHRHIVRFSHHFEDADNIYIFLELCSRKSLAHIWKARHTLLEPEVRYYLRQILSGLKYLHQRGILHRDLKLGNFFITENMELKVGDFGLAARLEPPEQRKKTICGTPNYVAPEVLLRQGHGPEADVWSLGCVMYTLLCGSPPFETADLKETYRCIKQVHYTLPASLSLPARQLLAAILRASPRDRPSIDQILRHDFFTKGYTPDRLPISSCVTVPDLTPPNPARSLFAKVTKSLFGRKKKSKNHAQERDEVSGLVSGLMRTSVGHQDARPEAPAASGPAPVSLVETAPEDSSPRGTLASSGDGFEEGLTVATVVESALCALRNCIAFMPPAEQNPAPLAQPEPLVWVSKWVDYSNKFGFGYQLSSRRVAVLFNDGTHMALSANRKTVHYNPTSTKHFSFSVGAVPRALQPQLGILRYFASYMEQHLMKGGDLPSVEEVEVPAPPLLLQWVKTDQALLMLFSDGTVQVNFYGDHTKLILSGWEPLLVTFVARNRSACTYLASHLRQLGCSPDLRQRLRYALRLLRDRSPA
# T3 sequence (Q9NYY3 whole entry, the tested form may be a part): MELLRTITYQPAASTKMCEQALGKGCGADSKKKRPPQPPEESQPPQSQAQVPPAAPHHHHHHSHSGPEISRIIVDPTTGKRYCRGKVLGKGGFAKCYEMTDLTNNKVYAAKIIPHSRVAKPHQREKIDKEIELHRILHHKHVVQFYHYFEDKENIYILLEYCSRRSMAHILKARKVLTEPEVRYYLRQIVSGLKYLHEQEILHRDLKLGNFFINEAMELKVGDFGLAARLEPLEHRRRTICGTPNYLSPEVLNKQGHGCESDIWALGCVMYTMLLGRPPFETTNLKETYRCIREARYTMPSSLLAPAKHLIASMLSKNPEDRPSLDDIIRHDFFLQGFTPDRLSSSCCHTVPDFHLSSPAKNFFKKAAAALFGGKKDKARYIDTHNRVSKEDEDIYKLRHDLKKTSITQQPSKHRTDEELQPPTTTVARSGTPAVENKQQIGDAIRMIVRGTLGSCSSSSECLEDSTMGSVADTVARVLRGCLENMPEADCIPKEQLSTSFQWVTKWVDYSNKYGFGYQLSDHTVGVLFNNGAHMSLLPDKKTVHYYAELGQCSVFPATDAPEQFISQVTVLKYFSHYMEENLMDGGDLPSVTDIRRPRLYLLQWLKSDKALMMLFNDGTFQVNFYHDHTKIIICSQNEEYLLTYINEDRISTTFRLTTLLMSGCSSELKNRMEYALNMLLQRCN
IC50 [1] [µM],"IC50 [2, 5] [µM]","IC50 [2, 6] [µM]","IC50 [4, 5] [µM]",selectivity relative to PLK1 [4],"IC50 [4, 6] [µM]","ratio Plk2 IC50 / Plk1 IC50 (selectivity relative to PLK1) [4, 6]",activity with respect to PLK2 [4],SMILES,IC50 [3] [µM],cell activity [3]
10 to 50,10 to 50,14.6,< 1,comparable selectivity,0.092,0.0063,comparable activity,"CC[C@@H]1c2nncn2-c2cnc(-n3ccnc3-c3ccc(F)c(F)c3)nc2N1C1CCC1 [Example 1, (R)-5-Cyclobutyl-7-(2-(3,4-difluorophenyl)-1H-imidazol-1-yl)-4-ethyl-4,5-dihydro-[1,2,4]triazolo[4,3-f]pteridine]",4.4,comparable cell activity
1 to 10,< 1,0.441,< 1,comparable selectivity,0.0085,0.019,comparable activity,"CC[C@@H]1c2nncn2-c2cnc(-n3ccnc3-c3ccccc3)nc2N1C1CCC1 [Example 3, (R)-5-Cyclobutyl-4-ethyl-7-(2-phenyl-1H-imidazol-1-yl)-4,5-dihydro-[1,2,4]triazolo[4,3-f]pteridine]",0.42,comparable cell activity
1 to 10,< 1,0.317,< 1,comparable selectivity,0.006,0.019,comparable activity,"CC[C@@H]1c2nncn2-c2cnc(-n3ccnc3-c3ccccc3F)nc2N1C1CCC1 [Example 5, (R)-5-cyclobutyl-4-ethyl-7-(2-(2-fluorophenyl)-1H-imidazol-1-yl)-4,5-dihydro-[1,2,4]triazolo[4,3-f]pteridine]",0.44,comparable cell activity
10 to 50,1 to 10,6.26,< 1,comparable selectivity,0.04,0.0064,comparable activity,"CC[C@@H]1c2nncn2-c2cnc(-n3ccnc3-c3ccc(F)cc3)nc2N1C1CCC1 [Example 7, (R)-5-Cyclobutyl-4-ethyl-7-(2-(4-fluorophenyl)-1H-imidazol-1-yl)-4,5-dihydro-[1,2,4]triazolo[4,3-f]pteridine]",2.9,comparable cell activity
1 to 10,< 1,,< 1,,,,,"CC[C@@H]1c2nncn2-c2cnc(-n3ccnc3-c3cccc(F)c3F)nc2N1C1CCC1 [Example 9, (R)-5-cyclobutyl-7-(2-(2,3-difluorophenyl)-1H-imidazol-1-yl)-4-ethyl-4,5-dihydro-[1,2,4]triazolo[4,3-f]pteridine]",,
10 to 50,1 to 10,,< 1,,,,,"CC[C@@H]1c2nncn2-c2cnc(-n3ccnc3-c3ccc(F)cc3F)nc2N1C1CCC1 [Example 11, (R)-5-Cyclobutyl-7-(2-(2,4-difluorophenyl)-1H-imidazol-1-yl)-4-ethyl-4,5-dihydro-[1,2,4]triazolo[4,3-f]pteridine]",,
1 to 10,1 to 10,,< 1,,,,,"CC[C@@H]1c2nncn2-c2cnc(-c3c[nH]nc3-c3nccs3)nc2N1C1CCC1 [Example 695, (R)-2-(4-(5-cyclobutyl-4-ethyl-4,5-dihydro-[1,2,4]triazolo[4,3-f]pteridin-7-yl)-1H-pyrazol-3-yl)thiazole]",,
,,0.194,,,0.007,0.036,,"CC[C@@H]1C(=O)N(C)c2cnc(-n3ccnc3-c3ccccc3)nc2N1C1CCC1 [PCT Example 47, reference compound]",0.67,
,,3.56,,,0.039,0.011,,"CC[C@@H]1C(=O)N(C)c2cnc(-n3ccnc3-c3ccc(F)c(F)c3)nc2N1C1CCC1 [PCT Example 48, reference compound]",4.3,
,,0.077,,,0.0045,0.058,,"CC[C@@H]1C(=O)N(C)c2cnc(-n3ccnc3-c3ccccc3F)nc2N1C1CCC1 [PCT Example 49, reference compound]",0.42,
,,2.06,,,0.02,,,"CC[C@@H]1c2nncn2-c2cnc(-n3ccnc3-c3ccc(F)cc3)nc2N1C1CCC1 [PCT Example 50, reference compound]",,
